Active and inactive are the calls of the source. How the calls were made is not given here. Where only a bound is given, the exact number is not on record here.

The subject of this test is 697B cells, BCR-induced NF-kB luciferase reporter luminescence. In words: inhibitors of BCR-induced NF-kB activation, dose response, 697B cells, luciferase luminescence (AID 489023).
The term IC50 denotes the concentration needed to halve the response being measured. Consider `Cc1ccoc1C(=O)Nc1ccc(CC(=O)O)cc1`, for which the concentration for half-maximal inhibition (IC50) is 2.09 µM.

For the compound `O=C(CCCN1C(=O)/C(=C/c2ccccc2Cl)SC1=S)NNC(=O)c1ccncc1`, the IC50 was 25.7 µM (inactive).

`O=C(c1cc2nc(-c3ccccc3)cc(-c3ccccc3)n2n1)N1CCN(C(=O)c2ccco2)CC1`: the IC50 is 8.73 µM.

As for `Cc1ccc(-c2cn(-c3ccccc3)c3[n+]2CCCS3)cc1`, the IC50 was > 80 µM (inactive).

Turning to `O=C(CN1C(=O)c2ccccc2S1(=O)=O)c1ccc(OC(F)F)cc1`, the IC50 is 1.83 µM.

In the case of `COc1cc(-c2nc3n(n2)C(c2ccc(F)cc2)C2=C(CCCC2=O)N3)cc(OC)c1OC` (stereo unspecified), the IC50 was 65.5 µM (inactive).

On to `O=C(C1CCC1)N1CCN(S(=O)(=O)c2ccc([N+](=O)[O-])cc2)CC1`, for which the IC50 is > 80 µM (inactive).

With `Cc1ccc(S(=O)(=O)Nc2ccc3c(c2)n(C)c(=O)n3C)cc1`, the IC50 is > 80 µM (inactive).

For the compound `CC1CCc2c(sc3nc(C(C)(C)C)nc(N4CCN(C(=O)CCl)CC4)c23)C1` (stereo unspecified), the IC50 is 0.68 µM.

In the case of `O=C(Nc1cccc(Br)c1)c1ccc2c(c1)SC1=NS(=O)(=O)CCN12`, the IC50 is 15.7 µM.

For the compound `C=C1C(=O)[C@@]23C[C@H]4[C@@H]5[C@@]6(C)CCC[C@@]57[C@@H]2[C@@H](O)[C@@H]1C[C@H]3[C@H]7N4C6`, the half-maximal inhibitory concentration (IC50) was 2.89 µM.

Take `COc1cc(/C(C)=N\NC(N)=S)cc(OC)c1OC`: the IC50 was 70.7 µM (inactive).

For `CCOC(=O)N1CCN(CC(=O)Nc2ccc([N+](=O)[O-])cc2C(=O)Nc2ccccc2F)CC1`, the IC50 was 29.1 µM (inactive).

Turning to `Cc1ccc(/C=C2\SC(=S)N(CCCC(=O)Nc3ccc(O)cc3)C2=O)cc1`, the half-maximal inhibitory concentration (IC50) is 0.27 µM.

Turning to `Cc1cc(OCC(=O)N2CCC(C(N)=O)CC2)c2c3c(c(=O)oc2c1)CCCC3`, the IC50 was > 80 µM (inactive).

For the compound `CCOc1ccc(/C=C2\SC(=S)N(CCC(=O)Nc3cccc(C(=O)O)c3)C2=O)cc1`, the IC50 is 8.87 µM.

For the compound `CCOc1ccc(-c2cc(CCCC(=O)NCc3ccco3)no2)cc1`, the 50% inhibitory concentration (IC50) was 6.57 µM.

For `C#CCN(Cc1ccccc1)S(=O)(=O)C=C`, the IC50 was 21.3 µM (inactive).

As to `CCOc1cc(/C=N\Nc2nc(Nc3ccccc3)nc(N3CCOCC3)n2)ccc1OC(=O)c1ccco1`, the IC50 is 1.25 µM.

Take `CCC(=O)N(C1=C(NC)C(=O)c2ccccc2C1=O)C(C)C`: the IC50 is > 80 µM (inactive).

For the compound `COc1ccc(/C=C2\SC(=S)N(CCCC(=O)Nc3ccc(O)cc3)C2=O)cc1`, the half-maximal inhibitory concentration (IC50) was 1.27 µM.

Take `CC(C)(C)c1ccc(-c2noc(CCC(=O)N3CCOCC3)n2)cc1`: the IC50 is 51.6 µM (inactive).

`COc1ccc(OC)c(C2CC(=O)Nc3cc(OC)c(OC)c(OC)c32)c1` (stereo unspecified): the IC50 was > 80 µM (inactive).

In the case of `Cc1ccc(S(=O)(=O)CC2CSc3nc4ccccc4n32)cc1` (stereo unspecified), the IC50 is > 80 µM (inactive).

`Cc1nc2cc(-c3ccc(Cl)cc3)nn2c(C)c1CCC(=O)NC(C)c1ccc2c(c1)OCCO2` (stereo unspecified): the IC50 was 23.7 µM (inactive).

Regarding `CC(C)c1ccc(/C=C2\SC(=S)N(CCC(=O)NCCCn3ccnc3)C2=O)cc1`, the IC50 was 16.6 µM.

Regarding `O=C1CCC2S/C(=C/Nc3ccc(C(F)(F)F)cc3)C(=O)N12` (stereo unspecified), the IC50 is 0.93 µM.

As for `COc1ccc(C(=O)N/N=C/c2sc(N3CCOCC3)nc2-c2ccccc2)cc1OC`, the concentration for half-maximal inhibition (IC50) is 14.4 µM.

Consider `Cc1ccc(S(=O)(=O)N2CCCCC2CCNC(=O)C(=O)NCc2ccncc2)cc1` (stereo unspecified), for which the half-maximal inhibitory concentration (IC50) is 11 µM.

Take `CC(=C/c1ccco1)/C=N/NC(=O)CSc1nnc(SCc2ccc(C)cc2)s1`: the IC50 is > 80 µM (inactive).

As to `Cc1cc(-c2cc(C(=O)NCc3ccccc3)on2)nc(S(C)(=O)=O)n1`, the half-inhibitory concentration (IC50) was 3.93 µM.

In the case of `COc1ccc(C(=O)Nc2ccccc2C(=O)NCc2ccco2)cc1OC`, the IC50 is > 80 µM (inactive).

With `Cc1c(CCC(=O)N2CCC(C(=O)O)CC2)c(=O)oc2cc3oc4c(c3cc12)CCCC4`, the 50% inhibitory concentration (IC50) was 14 µM.

Take `COc1ccc(/C=C/c2ccccc2)cc1[C@H]1[C@H]2C=CC[C@@H](C)[C@@H]2C(=O)N1Cc1ccccc1`: the IC50 is > 80 µM (inactive).

Consider `Cn1c(=O)n(C)c2cc(C(=O)Nc3ccc4c(c3)OCO4)ccc21`, for which the IC50 is 35.2 µM (inactive).

As to `Cc1ccc(C2(c3ccc(C)cc3)CC2C(=O)Nc2ccc([N+](=O)[O-])cc2O)cc1` (stereo unspecified), the IC50 is 73.4 µM (inactive).

For the compound `COc1ccc(-c2ccc(C)cc2)cc1[C@H]1[C@H]2C=CC[C@@H](C)[C@@H]2C(=O)N1Cc1ccccc1`, the IC50 was > 80 µM (inactive).

Regarding `CC1CCN(CCCNC(=O)COc2cc(=O)n(C)c3ccccc23)CC1`, the IC50 is > 80 µM (inactive).

Regarding `Cc1ccc(NC(=O)O/N=C/c2c(C)nn(C(C)(C)C)c2C)cc1Cl`, the IC50 was less than 0.16 µM.

For the compound `CCOc1ccc(/C=C2\SC(=S)N(CCCC(=O)NCCCN3CCOCC3)C2=O)cc1`, the half-maximal inhibitory concentration (IC50) is 0.43 µM.

On to `CCN1C(=O)c2cccc3c(S(=O)(=O)N4CCC(C)CC4)ccc1c23`, for which the IC50 is 49.3 µM (inactive).

Turning to `COc1ccccc1/C=C1\SC(=S)N(CCC(=O)Nc2nnc(C)s2)C1=O`, the IC50 was > 80 µM (inactive).

Regarding `O=C(N/N=C/c1cccnc1)c1cc(-c2ccccc2OCc2ccccc2)n[nH]1`, the IC50 was 6.82 µM.

Regarding `Cc1cc(C)c2nc(NC(=O)C3CSC4(C)CCC(=O)N34)sc2c1` (stereo unspecified), the IC50 was 32.2 µM (inactive).

Consider `Cc1c(CCC(=O)N2CCC[C@H]2C(=O)O)c(=O)oc2cc3oc4c(c3cc12)CCCC4`, for which the IC50 was > 80 µM (inactive).

Consider `Cn1c(=O)n(C)c2cc(NC(=O)CSc3nnc(-c4ccccc4O)n3-c3ccccc3)ccc21`, for which the IC50 is > 80 µM (inactive).

Consider `Oc1cc(O)cc(-c2cc3ccc(O)cc3o2)c1`, for which the IC50 was > 80 µM (inactive).

On to `O=C(Nc1ccccc1C(=O)Nc1nnc(C(F)(F)F)s1)c1ccccc1`, for which the IC50 was > 80 µM (inactive).

`COc1ccc(NC(=S)NCc2ccccc2)c(OC)c1`: the IC50 was > 80 µM (inactive).

As for `N=c1ccn(Cc2ccccc2Cl)cc1`, the IC50 is > 80 µM (inactive).

Take `CNC(=O)CCc1nc(-c2ccc(C(C)(C)C)cc2)no1`: the 50% inhibitory concentration (IC50) was less than 0.16 µM.

On to `O=C(O)CCSc1nc2ccccc2s1`, for which the IC50 was 10.1 µM.

In the case of `COc1ccc(-c2nc(CSCC(=O)NCc3ccco3)c(C)o2)cc1`, the IC50 is 9.47 µM.

On to `CCn1c(=O)cc(OCC(=O)N(C)C2CCCCC2)c2ccccc21`, for which the IC50 was > 80 µM (inactive).

Turning to `Cc1nc(Nc2c(Cl)cccc2Cl)sc1C(=O)Nc1ccccc1`, the IC50 is 50.1 µM (inactive).

Consider `CCc1cccc(NC(=O)c2ccc(CNc3c(N4CCCC4)c(=O)c3=O)cc2)c1`, for which the IC50 was > 80 µM (inactive).

Turning to `CCOc1ccc(-c2nc(CSCC(=O)NCc3ccco3)c(C)o2)cc1`, the IC50 is 0.32 µM.

For the compound `COC(=O)C(C)Oc1cc(C)cc2oc(=O)c3c(c12)CCC3` (stereo unspecified), the IC50 is 58 µM (inactive).

Take `O=C(CCl)N1CCN(S(=O)(=O)c2ccc3c(c2)CCC3)CC1`: the IC50 was 5.72 µM.

Turning to `CCN(CC(=O)Nc1c(F)cccc1F)C(=O)C1(c2ccccc2)CC1`, the IC50 is 14.4 µM.

For the compound `Cc1ccc(C)c(OCc2ccc(C(=O)NN)o2)c1`, the IC50 is > 80 µM (inactive).

With `O=C(NNC(=O)C12CC3CC(CC(Br)(C3)C1)C2)c1ccccc1F`, the 50% inhibitory concentration (IC50) was 12.1 µM.

In the case of `CCOC(=O)C(=CNc1cc(C)ccc1C)C(=O)OCC`, the IC50 is 49.2 µM (inactive).

On to `Cn1c(=O)cc(Nc2ccccc2)c2c(=O)n(-c3ccccc3)c(=O)n(-c3ccccc3)c21`, for which the IC50 was 5.6 µM.

As to `Cc1cc(C)c2nc(NC(=O)[C@@H](NC(=O)c3cccc(S(=O)(=O)N4CCOCC4)c3)C(C)C)sc2c1`, the IC50 was 16 µM.

`CCN(CC)c1ccc(/C=C2/C(=O)ON=C2C)cc1`: the IC50 was 21.2 µM (inactive).

For the compound `COc1ccc(/C=C2/SC(=S)N(CCCC(=O)Nc3ccc(O)cc3)C2=O)cc1`, the IC50 is 0.44 µM.

On to `Cc1cccn2c(=O)c3cc(C(=O)NC4CCCCC4)c(=N)n(CCN4CCOCC4)c3nc12`, for which the IC50 was > 80 µM (inactive).

Take `COc1ccc(OC)c(S(=O)(=O)Nc2ccc(-c3ccc4nnc(C)n4n3)cc2)c1`: the IC50 was > 80 µM (inactive).

With `CCn1c(=O)cc(OCC(=O)NCc2ccc(C)o2)c2ccccc21`, the IC50 is > 80 µM (inactive).

For the compound `CC1(C)CC2CC(C)(CN2S(=O)(=O)c2ccc(C(=O)Nc3ccc(S(=O)(=O)N4CCOCC4)cc3)cc2)C1` (stereo unspecified), the IC50 was > 80 µM (inactive).

For `COC(=O)C1=C(c2ccc(-c3ccccc3)c(F)c2)C[C@@H]2CC[C@H]1N2C(=O)N1CCCC1`, the IC50 was 73.9 µM (inactive).

On to `CC1CN(S(=O)(=O)c2ccc(C(=O)Nc3nc(-c4cc5ccccc5o4)cs3)cc2)CC(C)O1` (stereo unspecified), for which the IC50 was > 80 µM (inactive).

As to `CCc1ccc2[nH]c3nc(N/N=C/c4cccc(O)c4)nnc3c2c1`, the IC50 was > 80 µM (inactive).

Regarding `Cc1ccc(O)c(NC(=O)COc2cc(C)ccc2C)c1`, the IC50 was > 80 µM (inactive).

In the case of `COCCCNC(=O)COc1ccc(-c2nccc(-c3ccccn3)n2)cc1`, the concentration for half-maximal inhibition (IC50) was 19.4 µM.

In the case of `COc1ccc(C(=O)Nc2nnc(SCC(=O)Nc3ccc(NC(C)=O)cc3)s2)c(OC)c1`, the IC50 was > 80 µM (inactive).

As to `Cc1cc(N(C)C)ccc1N=Nc1ccc(N)cc1`, the IC50 was 61.1 µM (inactive).

Take `CCc1ccc(/C=C2/SC(=S)N(CCC(=O)Nc3cccnc3)C2=O)cc1`: the IC50 is 0.85 µM.

In the case of `COc1ccc(C(=O)n2nc(-c3ccc(Cl)cc3)nc2N)cc1OC`, the IC50 was 1.29 µM.

In the case of `CC1CCC/C=C/C2CC(O)CC2C(O)/C=C/C(=O)O1` (stereo unspecified), the IC50 is > 80 µM (inactive).

On to `COc1ccc(-c2nn(C)c(=O)c3ccccc23)cc1NS(C)(=O)=O`, for which the IC50 is 39.9 µM (inactive).

`COc1ccc(-c2ccoc2)cc1[C@H]1[C@H]2C=CC[C@@H](C)[C@@H]2C(=O)N1Cc1ccccc1`: the IC50 is > 80 µM (inactive).

On to `COc1ccc(NS(=O)(=O)c2ccc(-c3coc(C)n3)cc2)cc1OC`, for which the IC50 is > 80 µM (inactive).

With `O=C(O)COc1ccc(-c2nccc(-c3ccccn3)n2)cc1`, the IC50 was 21.7 µM (inactive).

Consider `CCCCCC/C=C/c1ccc(OC)c([C@H]2[C@H]3C=CC[C@@H](C)[C@@H]3C(=O)N2Cc2ccccc2)c1`, for which the IC50 was > 80 µM (inactive).

Source of the values: PubChem BioAssay AID489023 (Sanford-Burnham Center for Chemical Genomics, 2010).
